Experimental data: US9962375B2, “Methyl-piperidine compounds useful for inhibiting microsomal prostaglandin E2 synthase-1” (Eli Lilly and Company, priority 2014, dated 2018)

Assays:
[1] = test system: PGE2 formation in human whole blood; test: Human Whole Blood Assay (LPS induced PGE2); type: cell-based; conditions: 100 μg/mL LPS, 20-24 hours, LC/MS/MS, n=11, read-out: IC50 for inhibition of PGE2 formation in human whole blood
Protocol: Blood is collected from normal volunteer donors into sodium heparin VACUTAINER tubes. Donors are selected, in part, on their confirmation that they have not taken NSAIDs, aspirin, Celebrex®, or glucocorticoids within two weeks of the donation. All tubes/donor are pooled into 250 mL Corning conical centrifuge tubes and 436.5 μL/well is distributed into deep well polypropylene plates. Compounds are diluted in DMSO to 100× final and 4.5 μL/well in duplicate or triplicate is added to give 7 point curves. […] One hundred microliters is quantitatively transferred to Costar cluster tubes blocks and 400 μL/well of the MeOH stop reagent and internal standards, d4-PGE2, d4-PGF2α, and d4-TXA2β are added. […]
Solid phase extraction is performed using Waters HLB 30 mg/bed 96 well plates on a vacuum manifold: Step 1, the matrix is washed with MeOH (1 mL), followed by 0.1% formic acid in water (1 mL); Step 2, 400 μL sample is applied along with 0.1% formic acid in water (900 μL) and allowed to bind for 5 minutes; Step 3, the matrix is washed with 0.1% formic acid in water (600 μL), followed by 80/20 water/MeOH (600 μL); Step 4, the products are eluted with 2-500 μL volumes of EtOAc; Step 5 the samples are dried under nitrogen and reconstituted in 75/25 water/acetonitrile with 0.1% formic acid (50 μL). The products are analyzed by LC/MS/MS.

[2] = test system: PGE2 formation in human epithelial lung carcinoma cell line A549; test: Cell Based Assay for Measuring Eicosanoid Selectivity (rhIL-1β induced PGE2 in A549 cells); conditions: 0.1 ng/mL rhIL-1β, approximately 18 hours, EIA, ±0.00301, n=2, read-out: IC50 for inhibition of PGE2 formation
Protocol: Cell Based Assay for Measuring Eicosanoid Selectivity
Human epithelial lung carcinoma cell line A549 is obtained from ATCC (CCL-185) and maintained in Kaighn's F12 cell culture medium+10% fetal bovine serum (FBS) (plating medium) under standard 5% CO2 humidified atmosphere at 37° C. The cells are passaged at 1:3 twice per week.
For the assays, cells are released from flasks by washing once with PBS, then once with Trypsin/EDTA. After 3-5 minutes at 37° C., the cells are suspended in plating medium and centrifuged at 2,000 rpm, 25° C., for 5 minutes. The supernatant is aspirated and the cell pellet is resuspended in F12K plating medium. The cell number is determined by counting an aliquot of cells which has been diluted in PBS and Trypan blue on a hemocytometer. Cells are plated at 40,000/well in 96 well Falcon plates 24 hours prior to treatment. Compounds are diluted in DMSO to 100× of the final concentration in Screen Mates tubes. The medium is removed from the cells and fresh medium (90 μL/well) is added to the cells. The compounds are added at 1 μL/well, n=2, to give seven concentrations each. Cells are pretreated with compounds for 30 minutes at 37° C., 5% CO2. […] After approximately 90-120 minutes at room temperature on an orbital shaker at 100 rpm, the plates are read at A412 on a plate reader. […]

Human mPGES-1 = target: T1, Human mPGES-1 (Homo sapiens, UniProt O14684); test: Human mPGES-1 Enzyme Inhibition Assay; type: biochemical; conditions: microsomes from 293E cells, 1.67 μM PGH2, PGE2 by LC/MS; ±0.00064, n=17
T1 construct: host or cells: 293E cells (transient expression; microsomes prepared from cell pellets)
T1 sequence (O14684 1-152): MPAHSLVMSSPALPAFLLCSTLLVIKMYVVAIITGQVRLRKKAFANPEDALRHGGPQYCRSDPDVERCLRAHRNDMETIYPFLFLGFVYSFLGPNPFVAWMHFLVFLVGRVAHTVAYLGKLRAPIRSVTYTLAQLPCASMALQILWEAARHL
Protocol: Human mPGES-1 Enzyme Inhibition Assay
Human mPGES-1 (Invitrogen™ (Cat#97002RG, clone ID 6374722)) is subcloned into pcDNA3.1 and transiently expressed in 293E cells. Microsomes are prepared from cell pellets based on published methods (Oullet et al., Purification and characterization of recombinant microsomal prostaglandin E synthase-1, Protein Expression and Purification, 26 pp 489-495 (2002); and Thoren et al., Human Microsomal Prostanglandin E Synthase-1, J. Biol Chem. 278(25) pp 22199-22209 (2003)). Briefly, pellets are brought up in homogenization buffer (15 mM Tris-HCl, pH 8.0; 0.25 M sucrose; 0.1 mM EDTA; 1 mM glutathione) and sonicated 5×30 seconds on ice. Homogenate is centrifuged at 5,000×g for 10 minutes at 4° C. The supernatant fraction is decanted and loaded into Beckman Quick-Seal® tubes and centrifuged at 150,000×g. for 90 minutes at 4° C. The supernatant fraction is discarded by decantation and the pellets are re-suspended in assay buffer (10 mM sodium phosphate, pH 7.0; 10% glycerol; 2.5 mM glutathione; Complete Protease Inhibitor Cocktail (Roche)). Protein concentration is determined using the Pierce Coomassie Plus™ reagent.
For the enzyme assay, the microsomes are diluted into assay buffer and 14 μL/well of the resulting solution is added to 384 well assay plates. […]

## Cc1cccc2ccc(N3CC[C@H](C(=O)N[C@H]4CCO[C@H](CO)C4)C(C)(C)C3)nc12 [Example 1, (S)-N-((2S,4S)-2-(Hydroxymethyl)tetrahydro-2H-pyran-4-yl)-3,3-dimethyl-1-(8-methylquinolin-2-yl)piperidine-4-carboxamide]
[1]
  IC50: 2.05 ± 0.82 nM
[2]
  IC50: 4.71 nM
Human mPGES-1
  IC50: 1.93 nM
